Data from ChEMBL document CHEMBL2177070, “The effect of the placement and total charge of the basic amino acid clusters on antibacterial organism selectivity and potency” (Bioorg Med Chem, 2011).
In brackets after ≈: the same amount, converted by molar mass. Square brackets hold non-standard residues; d marks the D form. Peptide text beside a SMILES is read from it. ξ: configuration not given here. Oic(3aξ,7aξ) = O=C(O)[C@@H]1CC2CCCCC2N1; Tiq1c(1S) = O=C(O)[C@H]1NCCc2ccccc21

Assays:
[1] = Induction of calcein leakage in 1-palmitoyl-2-oleoyl-sn-glycero-3-phosphocholine large unilamellar vesicle assessed as leakage constant after 90 mins by fluorescence assay; format: physicochemical; conditions: 1.5 h
[2] = Binding affinity to 1-palmitoyl-2-oleoyl-sn-glycero-3-phosphocholine large unilamellar vesicle in 40 mM phosphate buffer at pH 6.8 at 100 uM by Far-UV CD spectra analysis; format: physicochemical; conditions: pH 6.8, 100 µM
[3] = Binding affinity to 1-palmitoyl-2-oleoyl-sn-glycero-3-phosphocholine/1-palmitoyl- 2-oleoyl-sn-glycero-3-[phospho-rac-(1-glycerol)] (sodium salt) large unilamellar vesicle in 40 mM phosphate buffer at pH 6.8 at 100 uM by Far-UV CD spectra analysis; format: physicochemical; conditions: pH 6.8, 100 µM
[4] = tested on: Burkholderia pseudomallei; experiment: Antimicrobial activity against Burkholderia pseudomallei; format: functional
[5] = Binding affinity to 1-palmitoyl-2-oleoyl-sn-glycero-3-phosphocholine small unilamellar vesicle in 40 mM phosphate buffer at pH 6.8 at 100 uM by Far-UV CD spectra analysis; format: physicochemical; conditions: pH 6.8, 100 µM
[6] = Binding affinity to 1-palmitoyl-2-oleoyl-sn-glycero-3-phosphocholine large unilamellar vesicle at 100 uM by isothermal titration calorimetry analysis; format: physicochemical
[7] = Induction of calcein leakage in 1-palmitoyl-2-oleoyl-sn-glycero-3-phosphocholine/1-palmitoyl- 2-oleoyl-sn-glycero-3-[phospho-rac-(1-glycerol)] (sodium salt) large unilamellar vesicle assessed as leakage constant after 90 mins by fluorescence assay; format: physicochemical; conditions: 1.5 h
Bacillus anthracis = experiment: Antimicrobial activity against Bacillus anthracis AMES; format: functional
Brucella melitensis = experiment: Antimicrobial activity against Brucella melitensis 16M; format: functional
Brucella abortus = experiment: Antimicrobial activity against Brucella abortus 2308; format: functional
Acinetobacter baumannii [8] = experiment: Antimicrobial activity against Acinetobacter baumannii WRAIR; format: functional
Burkholderia mallei = experiment: Antimicrobial activity against Burkholderia mallei; format: functional
[9] = Induction of calcein leakage in 1-palmitoyl-2-oleoyl-sn-glycero-3-phosphocholine large unilamellar vesicle at 4 to 20 uM after 90 mins by fluorescence assay; format: physicochemical; conditions: 1.5 h
[10] = Binding affinity to SDS micelles by CD spectra analysis; format: physicochemical
Yersinia pestis = experiment: Antimicrobial activity against Yersinia pestis CO92; format: functional
[11] = tested on: Francisella tularensis subsp. tularensis SCHU S4; experiment: Antimicrobial activity against Francisella tularensis SCHUS4; format: functional
Brucella suis = experiment: Antimicrobial activity against Brucella suis 23444; format: functional
[12] = Binding affinity to 1-palmitoyl-2-oleoyl-sn-glycero-3-phosphocholine/1-palmitoyl- 2-oleoyl-sn-glycero-3-[phospho-rac-(1-glycerol)] (sodium salt) large unilamellar vesicle at 200 uM by isothermal titration calorimetry analysis; format: physicochemical
Acinetobacter baumannii [13] = experiment: Antimicrobial activity against Acinetobacter baumannii ATCC 19606; format: functional
Staphylococcus aureus [14] = experiment: Antimicrobial activity against Staphylococcus aureus ATCC 33591; format: functional
[15] = Binding affinity to DPC micelles by CD spectra analysis; format: physicochemical
[16] = Binding affinity to 1-palmitoyl-2-oleoyl-sn-glycero-3-phosphocholine/1-palmitoyl- 2-oleoyl-sn-glycero-3-[phospho-rac-(1-glycerol)] (sodium salt) small unilamellar vesicle in 40 mM phosphate buffer at pH 6.8 at 100 uM by Far-UV CD spectra analysis; format: physicochemical; conditions: pH 6.8, 100 µM
[17] = Induction of calcein leakage in 1-palmitoyl-2-oleoyl-sn-glycero-3-phosphocholine/1-palmitoyl- 2-oleoyl-sn-glycero-3-[phospho-rac-(1-glycerol)] (sodium salt) large unilamellar vesicle at 4 to 20 uM after 90 mins by fluorescence assay; format: physicochemical; conditions: 1.5 h
[18] = Binding affinity to 1-palmitoyl-2-oleoyl-sn-glycero-3-phosphocholine/1-palmitoyl- 2-oleoyl-sn-glycero-3-[phospho-rac-(1-glycerol)] (sodium salt) large unilamellar vesicle in 40 mM phosphate buffer at pH 6.8 at 75 uM by Far-UV CD spectra analysis; format: physicochemical; conditions: pH 6.8, 75 µM
[19] = Binding affinity to 1-palmitoyl-2-oleoyl-sn-glycero-3-phosphocholine large unilamellar vesicle in 40 mM phosphate buffer at pH 6.8 at 75 uM by Far-UV CD spectra analysis; format: physicochemical; conditions: pH 6.8, 75 µM
Staphylococcus aureus [20] = experiment: Antimicrobial activity against ME/GM/TC-resistant Staphylococcus aureus; format: functional
Mycobacterium = experiment: Antimicrobial activity against Mycobacterium ranae; format: functional
[21] = Binding affinity to 1-palmitoyl-2-oleoyl-sn-glycero-3-phosphocholine large unilamellar vesicle at 200 uM by isothermal titration calorimetry analysis; format: physicochemical
[22] = Binding affinity to 1-palmitoyl-2-oleoyl-sn-glycero-3-phosphocholine small unilamellar vesicle in 40 mM phosphate buffer at pH 6.8 at 75 uM by Far-UV CD spectra analysis; format: physicochemical; conditions: pH 6.8, 75 µM
Bacillus subtilis = experiment: Antimicrobial activity against Bacillus subtilis; format: functional
Salmonella typhimurium = experiment: Antimicrobial activity against Salmonella typhimurium; format: functional, Salmonella enterica subsp. enterica serovar Typhimurium; conditions: Salmonella enterica
[23] = Binding affinity to 1-palmitoyl-2-oleoyl-sn-glycero-3-phosphocholine/1-palmitoyl- 2-oleoyl-sn-glycero-3-[phospho-rac-(1-glycerol)] (sodium salt) small unilamellar vesicle in 40 mM phosphate buffer at pH 6.8 at 75 uM by Far-UV CD spectra analysis; format: physicochemical; conditions: pH 6.8, 75 µM

| Structure (SMILES) | K [1] | Activity [2] | Activity [3] | MIC [4] [µM] | Activity [5] | Activity [6] | K [7] | MIC (Bacillus anthracis) [µM] | MIC (Brucella melitensis) [µM] | MIC (Brucella abortus) [µM] | MIC (Acinetobacter baumannii [8]) [µM] | MIC (Burkholderia mallei) [µM] | Activity [10] | MIC (Yersinia pestis) [µM] | MIC [11] [µM] | MIC (Brucella suis) [µM] | Activity [12] | MIC (Acinetobacter baumannii [13]) [µM] | MIC (Staphylococcus aureus [14]) [µM] | Activity [17] | also measured |
| --- | --- | --- | --- | --- | --- | --- | --- | --- | --- | --- | --- | --- | --- | --- | --- | --- | --- | --- | --- | --- | --- |
| CC(=O)NCC(=O)N[C@@H](Cc1ccccc1)C(=O)N1CCc2ccccc2[C@H]1C(=O)N1C2CCCCC2C[C@H]1C(=O)NCC(=O)N[C@@H](CCCCN)C(=O)N1CCc2ccccc2[C@H]1C(=O)N1C2CCCCC2C[C@H]1C(=O)NCC(=O)N[C@@H](Cc1ccccc1)C(=O)N1CCc2ccccc2[C@H]1C(=O)N1C2CCCCC2C[C@H]1C(=O)NCC(=O)N[C@@H](CCCCN)C(=O)N1CCc2ccccc2[C@H]1C(=O)N[C@@H](CCCCN)C(=O)N[C@@H](CCCCN)C(=O)N[C@@H](CCCCN)C(N)=O (stereo partly drawn) (Ac-GF[Tiq1c(1S)][Oic(3aξ,7aξ)]GK[Tiq1c(1S)][Oic(3aξ,7aξ)]GF[Tiq1c(1S)][Oic(3aξ,7aξ)]GK[Tiq1c(1S)]KKK-NH2) | 0.014 | Active | Active | 0.02 (≈ 0.0463 µg/mL) | Active | Active | 0.075 | 27 (≈ 62.4 µg/mL) | 54 (≈ 125 µg/mL) | 27 (≈ 62.4 µg/mL) | 3.4 (≈ 7.86 µg/mL) | 0.02 (≈ 0.0463 µg/mL) | Active | 27 (≈ 62.4 µg/mL) | 0.02 (≈ 0.0463 µg/mL) | > 216 | Active | 6.7 (≈ 15.5 µg/mL) | 54 (≈ 125 µg/mL) | Active | Activity [9]: Active; Activity [15]: Active; Activity [16]: Active |
| CC(=O)NCC(=O)N[C@@H](Cc1ccccc1)C(=O)N1CCc2ccccc2[C@H]1C(=O)N1C2CCCCC2C[C@H]1C(=O)NCC(=O)N[C@@H](CCCCN)C(=O)N1CCc2ccccc2[C@H]1C(=O)N1C2CCCCC2C[C@H]1C(=O)NCC(=O)N[C@@H](Cc1ccccc1)C(=O)N1CCc2ccccc2[C@H]1C(=O)N1C2CCCCC2C[C@H]1C(=O)NCC(=O)N[C@@H](CCCCN)C(=O)N1CCc2ccccc2[C@H]1C(=O)N[C@@H](CCCCN)C(=O)N[C@@H](CCCCN)C(=O)N[C@@H](CCCCN)C(=O)N[C@@H](CCCCN)C(N)=O (stereo partly drawn) (Ac-GF[Tiq1c(1S)][Oic(3aξ,7aξ)]GK[Tiq1c(1S)][Oic(3aξ,7aξ)]GF[Tiq1c(1S)][Oic(3aξ,7aξ)]GK[Tiq1c(1S)]KKKK-NH2) | 0.097 | – | – | 205 (≈ 500 µg/mL) | – | – | 0.089 | 12.8 (≈ 31.2 µg/mL) | 205 (≈ 500 µg/mL) | 205 (≈ 500 µg/mL) | 3.2 (≈ 7.81 µg/mL) | 205 (≈ 500 µg/mL) | Active | 205 (≈ 500 µg/mL) | 100 (≈ 244 µg/mL) | 205 (≈ 500 µg/mL) | Active | 3.2 (≈ 7.81 µg/mL) | 205 (≈ 500 µg/mL) | Not Active | Activity [18]: Active; Activity [19]: Active; MIC (Staphylococcus aureus [20]): 3 µM (≈ 7.32 µg/mL); MIC (Mycobacterium): 10 µM (≈ 24.4 µg/mL); Activity [21]: Active; Activity [22]: Active; Activity [15]: Active; MIC (Bacillus subtilis): 1 µM (≈ 2.44 µg/mL); MIC (Salmonella typhimurium): 10 µM (≈ 24.4 µg/mL); Activity [23]: Active |
| CC(=O)NCC(=O)N[C@@H](Cc1ccccc1)C(=O)N1CCc2ccccc2[C@H]1C(=O)N1C2CCCCC2C[C@H]1C(=O)NCC(=O)N[C@@H](CCCCN)C(=O)N1CCc2ccccc2[C@H]1C(=O)N1C2CCCCC2C[C@H]1C(=O)NCC(=O)N[C@@H](Cc1ccccc1)C(=O)N1CCc2ccccc2[C@H]1C(=O)N1C2CCCCC2C[C@H]1C(=O)NCC(=O)N[C@@H](CCCCN)C(=O)N1CCc2ccccc2[C@H]1C(=O)N[C@@H](CCCCN)C(=O)N[C@@H](CCCCN)C(=O)N[C@@H](CCCCN)C(=O)N[C@@H](CCCCN)C(=O)N[C@@H](CCCCN)C(N)=O (stereo partly drawn) (Ac-GF[Tiq1c(1S)][Oic(3aξ,7aξ)]GK[Tiq1c(1S)][Oic(3aξ,7aξ)]GF[Tiq1c(1S)][Oic(3aξ,7aξ)]GK[Tiq1c(1S)]KKKKK-NH2) | 0.0011 | Active | Active | – | Active | Active | 0.073 | – | – | – | – | – | – | – | – | – | Active | – | – | Not Active | MIC (Staphylococcus aureus [20]): 3 µM (≈ 7.71 µg/mL); MIC (Mycobacterium): 3 µM (≈ 7.71 µg/mL); Activity [16]: Active; MIC (Bacillus subtilis): 1 µM (≈ 2.57 µg/mL); MIC (Salmonella typhimurium): 10 µM (≈ 25.7 µg/mL) |
| CC(=O)N[C@@H](CCCCN)C(=O)N[C@@H](CCCCN)C(=O)N[C@@H](CCCCN)C(=O)N[C@@H](CCCCN)C(=O)NCC(=O)N[C@@H](Cc1ccccc1)C(=O)N1CCc2ccccc2[C@H]1C(=O)N1C2CCCCC2C[C@H]1C(=O)NCC(=O)N[C@@H](CCCCN)C(=O)N1CCc2ccccc2[C@H]1C(=O)N1C2CCCCC2C[C@H]1C(=O)NCC(=O)N[C@@H](Cc1ccccc1)C(=O)N1CCc2ccccc2[C@H]1C(=O)N1C2CCCCC2C[C@H]1C(=O)NCC(=O)N[C@@H](CCCCN)C(=O)N1CCc2ccccc2[C@H]1C(N)=O (stereo partly drawn) (Ac-KKKKGF[Tiq1c(1S)][Oic(3aξ,7aξ)]GK[Tiq1c(1S)][Oic(3aξ,7aξ)]GF[Tiq1c(1S)][Oic(3aξ,7aξ)]GK[Tiq1c(1S)]-NH2) | 0.57 | Active | Active | 204 (≈ 498 µg/mL) | Active | Active | 0.0085 | 0.4 (≈ 0.976 µg/mL) | 51 (≈ 124 µg/mL) | 51 (≈ 124 µg/mL) | 12.8 (≈ 31.2 µg/mL) | 204 (≈ 498 µg/mL) | Active | 13.1 (≈ 32 µg/mL) | 51 (≈ 124 µg/mL) | 25.6 (≈ 62.5 µg/mL) | Active | 12.8 (≈ 31.2 µg/mL) | 102 (≈ 249 µg/mL) | Active | MIC (Staphylococcus aureus [20]): 30 µM (≈ 73.2 µg/mL); MIC (Mycobacterium): 3 µM (≈ 7.32 µg/mL); Activity [9]: Active; Activity [15]: Active; Activity [16]: Active; MIC (Salmonella typhimurium): 100 µM (≈ 244 µg/mL) |
